From US6518036B1, “Method of permanent fluorescent assay” (Nen Life Science Products, Inc., priority 1999, dated 2003)

Legend:
[1] = target: Horseradish peroxidase (HRP) conjugated wheat germ agglutinin (Armoracia rusticana, UniProt P00433); conditions: mouse intestine section
Description: Sections of paraffin-embedded mouse intestine were deparaffinized, and non-specific binding sites were blocked by treatment for thirty minutes in PBS-blocking buffer (PBS-BB) (0.1 M phosphate buffered saline, pH 7.2; 1.0% bovine serum albumin, 0.2% non-fat powdered milk; and 0.3% Triton X-100). Horseradish peroxidase (HRP) conjugated wheat germ agglutinin (Sigma; St. Louis, Mo.) at a concentration of 10 μg/ml in PBS-BB was incubated on the sections for one hour at room temperature. Sections were then washed in PBS (three×five minutes each wash) and Tris (0.1 M Tris, pH 8.5; three×three minutes each wash). N-(5-hydroxypentyl)-3-(p-hydroxyphenyl) propionamide (HHPA), 1 mg/ml in Tris containing 0.003% H2O2, was then added to the sections at room temperature for ten minutes. Sections were then washed in Tris (three×three minutes each wash) and mounted with Tris:Glycerol (1:1) and coverslipped. Sections were viewed with a Zeiss Axioskop microscope equipped with epifluorescence and filter sets with excitation/emission characteristics of 360 nm/>400 nm (blue-white fluorescence); 490 nm/520 nm (green fluorescence); and 550 nm/570 nm (red fluorescence). Sections were photographed with a Zeiss MC100 camera system.
Wheat germ agglutinin binds to N-acetylglucosamine residues present in abundance in intestinal mucin producing goblet cells. […] The microscopic field was then illuminated for one minute at 360 nm and reexamined as described above. […] Original magnifications 400×.

[2] = Fluorescent signal stability under continuous excitation (automatic exposure time, ASA 1600); format: physicochemical; conditions: mouse brain section
Description: Sections of paraffin-embedded mouse brain were deparaffinized and non-specific binding sites were blocked by treatment for thirty minutes in PBS-BB. Monoclonal antibody against microtubule associated protein-2 (Sigma) was diluted 1:100,000 in PBS-BB and incubated on the sections overnight at 4° C. Sections were then washed in PBS (three×five minutes each wash) and incubated at room temperature for one hour with HRP-conjugated donkey anti-mouse antibodies (Jackson Immunoresearch Laboratories; West Grove, Pa.) diluted 1:1000 in PBS-BB. […]
The fluorescein labeled section was viewed with a filter set having excitation/emission peaks at 490 nm/520 nm. […] Photomicrographs using standard two second exposures were taken at both time points to assess changes in fluorescence intensity over time. In addition, fluorescence intensity was semi-quantitated at both time points by recording the automatic exposure time required for photomicrographic documentation in a standard field using an ASA setting of 1600 and the MC100 camera system (Zeiss). Using this measure, short exposure times correlate with bright-fluorescence and long exposure times with dim fluorescence.

Horseradish peroxidase (HRP) conjugated wheat germ agglutinin, sequence (P00433 31-338 limits assumed): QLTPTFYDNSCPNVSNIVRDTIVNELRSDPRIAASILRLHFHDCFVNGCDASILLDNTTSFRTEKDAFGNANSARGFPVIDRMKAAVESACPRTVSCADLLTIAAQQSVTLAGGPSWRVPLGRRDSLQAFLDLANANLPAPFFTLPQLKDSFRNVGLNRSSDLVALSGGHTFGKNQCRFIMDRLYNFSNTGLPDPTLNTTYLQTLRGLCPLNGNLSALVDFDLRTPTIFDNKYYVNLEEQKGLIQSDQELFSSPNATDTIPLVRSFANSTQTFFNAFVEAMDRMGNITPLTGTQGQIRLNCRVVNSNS

fluorescence signal, blue-white filter set ([1]; 360 nm excitation, before one minute illumination at 360 nm): weak fluorescence signal
fluorescent signal, all three filter sets (blue-white, green, red) ([1]; after one minute illumination at 360 nm, localized to goblet cells): Intense fluorescent signals
fluorescence signal, green or red filter sets ([1]; before one minute illumination at 360 nm): almost no signal
time required for a standard ASA 1600 exposure ([2]; after fifteen minutes of continuous excitation): 3.1 s
time required for a standard ASA 1600 exposure ([2]; time zero, short exposure = bright fluorescence): 4.1 s
SMILES: O=C(CCc1ccc(O)cc1)NCCCCCO [HHPA, N-(5-hydroxypentyl)-3-(p-hydroxyphenyl) propionamide]
